We go through eight molecules from ChEMBL document CHEMBL1144347, “Endothelin-converting enzyme-1 inhibition and growth of human glioblastoma cells” (J Med Chem, 2005).

Assay [1] in a line: cells. The settings on record: Homo sapiens, Glioblastoma.
Description: (§1) Inhibitory concentration against DNA synthesis in LNZ308 glioblastoma cells
Assay [2] has as its target T1, Endothelin-converting enzyme 1 (Homo sapiens, UniProt P42892).
T1 sequence (P42892 whole entry): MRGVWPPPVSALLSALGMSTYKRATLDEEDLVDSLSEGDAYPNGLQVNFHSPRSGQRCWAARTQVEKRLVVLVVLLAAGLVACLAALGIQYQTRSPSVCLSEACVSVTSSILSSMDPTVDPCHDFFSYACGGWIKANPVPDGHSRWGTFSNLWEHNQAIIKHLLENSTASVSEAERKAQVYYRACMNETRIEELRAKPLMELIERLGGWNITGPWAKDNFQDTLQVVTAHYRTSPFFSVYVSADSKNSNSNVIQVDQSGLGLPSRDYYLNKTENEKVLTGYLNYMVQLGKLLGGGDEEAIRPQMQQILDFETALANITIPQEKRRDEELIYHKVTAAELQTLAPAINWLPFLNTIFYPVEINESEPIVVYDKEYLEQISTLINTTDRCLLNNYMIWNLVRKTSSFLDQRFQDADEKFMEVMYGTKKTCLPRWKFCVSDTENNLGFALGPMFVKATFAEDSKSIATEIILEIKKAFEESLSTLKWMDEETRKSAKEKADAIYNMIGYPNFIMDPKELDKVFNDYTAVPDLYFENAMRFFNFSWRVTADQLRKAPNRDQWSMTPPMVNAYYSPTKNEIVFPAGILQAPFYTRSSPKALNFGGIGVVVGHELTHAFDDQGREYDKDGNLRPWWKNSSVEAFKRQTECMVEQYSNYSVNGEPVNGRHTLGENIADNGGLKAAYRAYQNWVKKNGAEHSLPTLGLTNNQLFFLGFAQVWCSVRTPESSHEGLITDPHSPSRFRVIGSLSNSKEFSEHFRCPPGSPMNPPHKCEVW
In words: Inhibitory concentration against human ECE-1 by RIA.

The nature of assay [3]: cells. To be noted: Homo sapiens, Glioblastoma. This is another data set of the same source.
Description: Inhibitory concentration against DNA synthesis in LN18 glioblastoma cells
In a further assay the target is Neprilysin (Homo sapiens, UniProt P08473). In words: Inhibitory concentration against Neprilysin.
The target of assay [4] is Angiotensin-converting enzyme (Homo sapiens, UniProt P12821). In words: Inhibitory concentration against human angiotensin I converting enzyme.
The target in assay [5] is T1, Endothelin-converting enzyme 1. In words: Inhibitory concentration against human ECE-1 expressed in MDCK cells. The format is cell-based.
Assay [6] can be described thus: cells. To be noted: Homo sapiens, Glioblastoma. The source holds these as a separate data set.
Description: Inhibitory concentration againstDNA synthesis in LN18 glioblastoma cells
Assay [7] in a line: cells. To be noted: Homo sapiens, Glioblastoma. This is another data set of the same source.
Description: as §1
The nature of assay [8]: Inhibitory concentration of the compound was determined against DNA synthesis in LN18 glioblastoma cells. The format is functional, cell-based. To be noted: Homo sapiens.

Each structure is given as a SMILES string. Bounds are passed on as bounds.

Sequence of Angiotensin-converting enzyme (P12821 whole entry): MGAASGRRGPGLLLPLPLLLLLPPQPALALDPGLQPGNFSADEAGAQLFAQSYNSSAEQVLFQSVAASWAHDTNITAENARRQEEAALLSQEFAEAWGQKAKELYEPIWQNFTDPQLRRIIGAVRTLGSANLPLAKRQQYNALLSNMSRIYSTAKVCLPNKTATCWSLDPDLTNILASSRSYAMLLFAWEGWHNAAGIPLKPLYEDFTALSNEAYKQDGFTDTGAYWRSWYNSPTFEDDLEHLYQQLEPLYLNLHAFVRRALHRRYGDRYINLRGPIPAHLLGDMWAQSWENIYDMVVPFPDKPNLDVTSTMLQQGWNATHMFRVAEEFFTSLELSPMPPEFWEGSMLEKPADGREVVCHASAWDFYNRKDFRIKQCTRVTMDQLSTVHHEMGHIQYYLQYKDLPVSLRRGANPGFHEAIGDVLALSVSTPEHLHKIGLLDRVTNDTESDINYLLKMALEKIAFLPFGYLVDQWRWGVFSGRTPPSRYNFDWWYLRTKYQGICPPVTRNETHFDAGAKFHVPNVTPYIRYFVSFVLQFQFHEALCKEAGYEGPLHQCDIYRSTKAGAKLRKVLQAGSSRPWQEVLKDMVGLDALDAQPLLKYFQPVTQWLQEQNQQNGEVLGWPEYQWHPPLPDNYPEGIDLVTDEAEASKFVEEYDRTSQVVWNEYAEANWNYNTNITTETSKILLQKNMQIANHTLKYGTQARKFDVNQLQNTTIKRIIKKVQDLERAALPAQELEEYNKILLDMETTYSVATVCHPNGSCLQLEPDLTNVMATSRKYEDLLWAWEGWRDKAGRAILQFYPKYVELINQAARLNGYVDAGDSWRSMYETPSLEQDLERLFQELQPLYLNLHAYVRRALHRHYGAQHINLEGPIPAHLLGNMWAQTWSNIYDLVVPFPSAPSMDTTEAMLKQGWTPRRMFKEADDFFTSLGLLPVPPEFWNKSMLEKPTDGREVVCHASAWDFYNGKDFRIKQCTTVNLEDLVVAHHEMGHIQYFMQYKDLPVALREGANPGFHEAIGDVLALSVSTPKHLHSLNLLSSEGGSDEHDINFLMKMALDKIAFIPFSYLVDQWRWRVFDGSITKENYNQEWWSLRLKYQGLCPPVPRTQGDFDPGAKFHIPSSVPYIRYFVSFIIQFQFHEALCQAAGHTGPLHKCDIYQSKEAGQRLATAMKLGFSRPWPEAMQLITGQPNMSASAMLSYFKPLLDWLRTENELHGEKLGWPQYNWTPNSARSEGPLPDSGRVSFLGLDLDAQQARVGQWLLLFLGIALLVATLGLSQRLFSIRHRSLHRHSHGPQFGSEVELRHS
Sequence of Neprilysin (P08473 whole entry): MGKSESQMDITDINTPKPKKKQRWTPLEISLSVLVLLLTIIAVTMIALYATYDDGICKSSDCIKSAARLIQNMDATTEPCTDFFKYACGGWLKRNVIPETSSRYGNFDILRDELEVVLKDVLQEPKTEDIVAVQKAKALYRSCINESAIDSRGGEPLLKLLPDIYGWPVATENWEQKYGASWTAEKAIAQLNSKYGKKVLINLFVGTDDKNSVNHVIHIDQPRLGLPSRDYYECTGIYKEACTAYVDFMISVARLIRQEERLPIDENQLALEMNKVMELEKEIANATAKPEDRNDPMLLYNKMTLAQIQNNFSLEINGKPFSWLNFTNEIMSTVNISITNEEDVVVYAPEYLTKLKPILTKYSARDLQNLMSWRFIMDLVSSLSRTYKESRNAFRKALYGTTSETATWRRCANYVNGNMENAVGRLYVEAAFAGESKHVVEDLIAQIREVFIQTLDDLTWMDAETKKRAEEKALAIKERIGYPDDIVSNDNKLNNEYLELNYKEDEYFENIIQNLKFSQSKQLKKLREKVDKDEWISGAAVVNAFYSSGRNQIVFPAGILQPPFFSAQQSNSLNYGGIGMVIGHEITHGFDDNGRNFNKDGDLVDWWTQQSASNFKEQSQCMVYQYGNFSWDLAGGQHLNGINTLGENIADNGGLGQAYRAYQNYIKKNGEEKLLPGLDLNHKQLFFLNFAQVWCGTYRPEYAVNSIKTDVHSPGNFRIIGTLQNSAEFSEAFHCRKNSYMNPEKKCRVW

As for `O=C(S[C@@H]1C[C@@H](COCc2cc(F)c(F)cc2F)N(C(=O)Oc2cccc3c2OCCO3)C1)c1ccccc1`, the IC50 is 20 µM in the assay “cells [1]”; 0.0497 µM in assay [2]; 18 µM in “cells [3]”; above 100 µM against Neprilysin; above 100 µM in assay [4]; 0.48 µM in assay [5].
On to `O=P(O)(O)C(Cc1ccc2ccccc2c1)N[C@@H](Cc1ccc(-c2ccccc2)cc1)c1nnn[nH]1` (some centres undefined) [CGS-314447], for which half-maximal inhibition in [2] (IC50) required 0.02 µM.
As for `COC(=O)c1ccccc1NC(=O)CN(C)C(=O)C1C[C@@H](S)CN1S(=O)(=O)c1ccc2ccccc2c1` (some centres undefined), the IC50 in the assay “cells [1]” stood at 16 µM; in assay [2], 0.0808 µM; in the assay “cells [3]”, 12 µM; on Neprilysin, 81.9 µM; in assay [4] it was 36.6 µM; in assay [5], 10.9 µM.
On to `CC(=O)S[C@@H]1C[C@@H](COCc2cc(F)c(F)cc2F)N(C(=O)Oc2cccc3c2OCCO3)C1`, for which the IC50 in [2] is 0.0069 µM; in the assay “cells [6]” it was 14 µM; in “cells [7]”, 16 µM; against Neprilysin it was above 100 µM; in [4], above 100 µM; in assay [5] it was 0.0765 µM.
In the case of `CCCc1cnc(N2C[C@H](S)C[C@H]2CNCc2cc(F)ccc2F)nc1`, the IC50 in assay [2] is 0.0104 µM; in the assay “cells [7]”, 40 µM; in [8] it was 19 µM; against Neprilysin, above 100 µM; in [4], 31.5 µM; in assay [5], 0.0729 µM.
For the molecule `COC(=O)c1ccccc1OC(=O)N1CC(S)CC1COCc1cc(F)c(F)cc1F` (centres undefined), the IC50 in assay [2] is 0.0012 µM; against Neprilysin it was above 100 µM; in assay [4], 13.4 µM; in assay [5] it was 0.067 µM.
The corresponding values for `Cc1ccc(S(=O)(=O)NN(C)C(=O)C2C[C@@H](S)CN2S(=O)(=O)c2ccc3ccccc3c2)cc1` (some centres undefined) are 0.0613 µM, 39.2 µM, 14.6 µM and 2.53 µM.
Regarding `CC(C)OC(=O)N1C[C@H](S)C[C@H]1CNCc1cc(F)ccc1F`, the IC50 in the assay “cells [1]” was 50 µM; in assay [2], 0.016 µM; in “cells [3]”, 27 µM; against Neprilysin, above 100 µM; in assay [4], above 100 µM; in [5] it was 1.09 µM.
